{"source": "patent US10583102B2", "about": "“Targeting liver nuclear receptors as a treatment for wilson disease” (THE JOHNS HOPKINS UNIVERSITY, priority 2014, dated 2020)", "key": {"Atp7b−/− mice [1]": {"system": "Atp7b−/− mice", "experiment": "Hepatic oxysterol measurement by LC/MS", "format": "in vivo", "conditions": "Atp7b knockout mice, data not shown", "procedure": "ATP7b knockout (ATP7b^−/−) and heterozygote (ATP7b^+/−) mice were generated as previously prescribed (Buiakova et al., 8(9) HUM. MOL. GENETICS 1665-71 (1999). T0901317 (Cayman Chemical, Ann Arbor, Mich.) powder was mixed with Teklad 2018 powdered chow (Harlan, Madison Wis.) and fed to animals aged 6-7 weeks old at a dose of 50 mg/kg/day, thrice weekly. After 8 weeks, animals were sacrificed. The animals were housed at the Johns Hopkins University School of Medicine (JHUSOM) Animal Care Facility and protocols designed according to National Institutes of Health (USA) guidelines. Normal pellet chow was fed to the mice on days they were not receiving the drug. Animals were weighed weekly. At the time of sacrifice, trunk blood and livers were harvested. The Institutional Animal Care and Use Committee (IACUC) of JHUSOM approved the above experimental protocols. Oxysterols were extracted and measured using the protocol described by McDonald et al. (53(7) J. LIPID RES. 1399-1409 (2012)). […] Quantitation was performed by establishing a linear relationship between measured amounts of the analytical standards combined with the internal standard cocktail. This regression line was applied to the measured peak areas for analytes in the extracted samples to determine measured quantities present in each sample. […]"}, "[2]": {"experiment": "Animal and liver weights during/after T0901317 treatment in chow", "format": "in vivo, mice", "conditions": "for body weight: 50 mg/kg/day thrice weekly in chow, 8 weeks", "procedure": "(§1) ATP7b knockout (ATP7b^−/−) and heterozygote (ATP7b^+/−) mice were generated as previously prescribed (Buiakova et al., 8(9) HUM. MOL. GENETICS 1665-71 (1999). T0901317 (Cayman Chemical, Ann Arbor, Mich.) powder was mixed with Teklad 2018 powdered chow (Harlan, Madison Wis.) and fed to animals aged 6-7 weeks old at a dose of 50 mg/kg/day, thrice weekly. After 8 weeks, animals were sacrificed. The animals were housed at the Johns Hopkins University School of Medicine (JHUSOM) Animal Care Facility and protocols designed according to National Institutes of Health (USA) guidelines. Normal pellet chow was fed to the mice on days they were not receiving the drug. Animals were weighed weekly. At the time of sacrifice, trunk blood and livers were harvested. The Institutional Animal Care and Use Committee (IACUC) of JHUSOM approved the above experimental protocols."}, "[3]": {"system": "LXR/RXR signaling pathway", "experiment": "Quantitative RT-PCR of liver mRNA, genes under control of LXR/RXR signaling pathway", "format": "in vivo, mice", "conditions": "for SREBP1 mRNA / FASN mRNA expression: treated vs untreated", "procedure": "as §1\n(§2) Sections of mouse liver were immersed in RNAlater, homogenized, and frozen at −80° C. RNA was isolated with TRIzol via the manufacturer's instructions, then transcribed into cDNA using the SuperScript III first strand synthesis system (Invitrogen). RNA quantity was determined by an ND-1000 spectrophotometer (NanoDrop, Wilmington, Del.). Samples were run in triplicate and performed on a 7900 HT machine (Applied Biosystems) and analyzed with the SDS 2.4.1 software. GAPDH served as the control to which gene of interest expression was normalized.\n(§3) Quantitative RT-PCR for ABC1, HmGCoA1, CYP71a, FASN, LXRα (NR1H3), LXRβ (NR1H2), RXRα (NR2B2), SREBP1, FXR, TIMP1, COL1a, and GAPDHwas performed with sequence-specific primers and probes using TaqMan gene expression assays (Applied Biosystems, Foster City, Calif.)."}, "Atp7b−/− mice [4]": {"system": "Atp7b−/− mice", "experiment": "Hepatic copper measurement by atomic absorption spectroscopy", "format": "in vivo", "conditions": "drug-treated Atp7b−/− mice, end of experiment", "procedure": "as §1, with “protocols. Hepatic copper levels were measured by polarized atomic absorption spectroscopy as previously described. Briefly, 50-100 mg of liver was dissolved in 2 ml of HNO3 at 90° C. Copper levels were determined using a Hitachi Z-8279 spectrophotometer. Samples were compared to freshly prepared standards.” for “protocols.”"}, "Atp7b−/− mice [5]": {"system": "Atp7b−/− mice", "experiment": "Serum lipid panel", "format": "in vivo", "conditions": "drug treated Atp7b−/− mice vs untreated Atp7b−/−", "procedure": "as §1, with “protocols. Animals were fasted overnight before sacrifice. Whole blood was collected from the aorta and vena cava in amber Microtainer tubes (Becton Dickinson, Franklin Lakes, N.J.), and serum was separated after centrifugation at 5000 rpm for 10 minutes. Liver biochemistries and lipid panels were performed in the Molecular and Comparative Pathobiology Core Laboratory of JHUSOM.” for “protocols.”"}, "Atp7b−/− mice [6]": {"system": "Atp7b−/− mice", "experiment": "Liver histology (H&E, inflammation scoring)", "format": "in vivo", "procedure": "as §1, with “protocols. Sections of mouse liver were covered in OCT and snap frozen in liquid nitrogen. Sections were then cut and stained with hematoxylin and eosin. De-identified samples were analyzed for the presence of inflammation by an expert in veterinary pathology (D.H.). Inflammation was scored as follows: none, 0; mild, 1; moderate, 2; and severe, 3. Severely inflamed livers had karyomegaly, cytomegaly, binucleate hepatocytes, intranuclear vacuoles, multiple nuclei, and inflammatory cell infiltrates.” for “protocols.”"}, "Atp7b−/− mice [7]": {"system": "Atp7b−/− mice", "experiment": "Serum liver biochemistries (AST, ALT, bilirubin, albumin)", "format": "in vivo", "conditions": "treated Atp7b−/− mice; p<0.05 vs untreated", "procedure": "as §1, with “protocols. Animals were fasted overnight before sacrifice. Whole blood was collected from the aorta and vena cava in amber Microtainer tubes (Becton Dickinson, Franklin Lakes, N.J.), and serum was separated after centrifugation at 5000 rpm for 10 minutes. Liver biochemistries and lipid panels were performed in the Molecular and Comparative Pathobiology Core Laboratory of JHUSOM.” for “protocols.”"}, "Atp7b−/− mice [8]": {"system": "Atp7b−/− mice", "experiment": "Hepatic triglyceride colorimetric assay", "format": "in vivo", "procedure": "as §1, with “protocols. The triglyceride colorimetric assay kit (Cayman Chemical, Ann Arbor, Mich.) was used for measuring hepatic triglyceride content using the provided protocol. 120-160 mg of liver tissue was homogenized and samples were assayed in triplicate. Absorbance at 540 nm was detected on an Envision plate reader (Perkin-Elmer). Triglyceride concentrations were calculated using a standard curve, then normalized to the volume of homogenate and the mass of the liver tissue.” for “protocols.”"}, "Atp7b−/− mice [9]": {"system": "Atp7b−/− mice", "experiment": "Quantitative RT-PCR of liver mRNA, inflammatory and fibrosis genes", "format": "in vivo", "procedure": "as §1, §2, §3"}, "[10]": {"conditions": "Atp7b−/− mice, treated vs untreated"}}, "note": "“Also recorded” adds a separate entry of the source.", "data": [{"smiles": "O=S(=O)(c1ccccc1)N(CC(F)(F)F)c1ccc(C(O)(C(F)(F)F)C(F)(F)F)cc1", "note": "[T0901317, N-(2,2,2-trifluoroethyl)-N-{4-[2,2,2-trifluoro-1-hydroxy-1-(trifluorometh-yl)ethyl]phenyl}benzene sulfonamide]", "values": [{"measurement": "changes in hepatic oxysterol levels", "setting": "Atp7b−/− mice [1]", "result": "did not reverse"}, {"measurement": "liver weight, treated vs untreated", "setting": "[2]; KO (Atp7b−/−) mice, end of treatment", "result": "neither a difference"}, {"measurement": "body weight", "setting": "[2]; drug-treated HET (Atp7b+/−) mice, p<0.05 vs untreated", "result": "26.43 ± 1.35", "unit": "g"}, {"measurement": "body weight", "setting": "[2]; drug-treated KO (Atp7b−/−) mice", "result": "24.03 ± 0.91", "unit": "g"}, {"measurement": "SREBP1 mRNA", "setting": "[3]; ATP7b+/− mice", "result": "increased"}, {"measurement": "SREBP1 mRNA", "setting": "[3]; ATP7b−/− mice", "result": "no change"}, {"measurement": "FASN mRNA expression", "setting": "[3]; Atp7b+/− mice", "result": "significantly increased"}, {"measurement": "FASN mRNA expression", "setting": "[3]; Atp7b−/− mice", "result": "significantly increased"}, {"measurement": "ABC1 mRNA levels", "setting": "[3]; both KO and HET mice", "result": "did not change"}, {"measurement": "CYP7A1 mRNA levels", "setting": "[3]; both KO and HET mice", "result": "did not change"}, {"measurement": "HMGCS1 mRNA levels", "setting": "[3]; both KO and HET mice", "result": "did not change"}, {"measurement": "NR1H2 mRNA levels", "setting": "[3]; both KO and HET mice", "result": "did not change"}, {"measurement": "NR1H3 mRNA levels", "setting": "[3]; both KO and HET mice", "result": "did not change"}, {"measurement": "NR1H4 mRNA levels", "setting": "[3]; both KO and HET mice", "result": "did not change"}, {"measurement": "hepatic copper levels", "setting": "Atp7b−/− mice [4]", "result": "did not prevent copper accumulation"}, {"measurement": "serum low density lipoprotein (LDL)", "setting": "Atp7b−/− mice [5]; p<0.001", "result": "significantly increased; also recorded: more than doubled"}, {"measurement": "serum total cholesterol", "setting": "Atp7b−/− mice [5]; p<0.001", "result": "significantly increased; also recorded: more than doubled"}, {"measurement": "serum high density lipoprotein (HDL)", "setting": "Atp7b−/− mice [5]; p<0.005", "result": "significantly increased; also recorded: more than doubled"}, {"measurement": "effect on liver histology", "setting": "Atp7b−/− mice [6]; heterozygote mice", "result": "no effect"}, {"measurement": "treated mice in which pathologic liver histology features disappeared", "setting": "Atp7b−/− mice [6]; treated KO mice, light microscopy", "result": "5/7"}, {"measurement": "serum ALT (mean)", "setting": "Atp7b−/− mice [7]", "result": "285±115", "unit": "U/L"}, {"measurement": "serum AST (mean)", "setting": "Atp7b−/− mice [7]", "result": "222±64", "unit": "U/L"}, {"measurement": "serum albumin", "setting": "Atp7b−/− mice [7]", "result": "2.93 ± 0.19", "unit": "g/dL"}, {"measurement": "serum total bilirubin", "setting": "Atp7b−/− mice [7]", "result": "0.85 ± 0.22", "unit": "mg/dL"}, {"measurement": "hepatic triglycerides", "setting": "Atp7b−/− mice [8]; drug treated HET mice vs untreated HET", "result": "statistically significant increase"}, {"measurement": "hepatic triglycerides", "setting": "Atp7b−/− mice [8]; drug treated KO mice vs untreated KO", "result": "statistically significant increase"}, {"measurement": "increase in expression of collagen (Col1a mRNA)", "setting": "Atp7b−/− mice [9]; Atp7b−/− mice", "result": "completely abolished"}, {"measurement": "IL-1β expression", "setting": "Atp7b−/− mice [9]; [10]", "result": "significantly reduced"}, {"measurement": "TNFα expression", "setting": "Atp7b−/− mice [9]; [10]", "result": "significantly reduced"}, {"measurement": "iNOs expression", "setting": "Atp7b−/− mice [9]; [10]", "result": "significantly reduced"}, {"measurement": "expression of inflammatory genes (TNFα, IL-1β, iNOs)", "setting": "Atp7b−/− mice [9]; heterozygote animals", "result": "no effect"}]}]}
